Measurements from patent US10934326B2, “Peripheral modifications on pocket-redesigned vancomycin analogs synergistically improve antimicrobial potency and durability” (priority 2016, dated 2021).
≈ marks a conversion by molar mass, not a printed value. Entries after “also recorded” stand apart in the source; their conditions may differ. Where two headings read alike, the source gives them in different places.

Tests used:
[1] = system: Enterococcus faecium (VanA VRE, ATCC BAA-2317); settings: previously reported data; cited from earlier work
[2] = system: methicillin and oxacillin-resistant Staphylococcus aureus subsp. aureus (MRSA strain ATCC 43300); settings: previously reported data; cited from earlier work
[3] = system: vancomycin-resistant Enterococcus faecalis (VanB VRE, strain ATCC 51299); settings: previously reported data; cited from earlier work
[4] = system: vancomycin-resistant Enterococcus faecalis (VanA VRE, BM4166); settings: BM 4166; previously reported data; cited from earlier work
[5] = system: VanA VRE (E. faecalis BM 4166 and E. faecium ATCC BAA-2317); experiment: Cell wall biosynthesis inhibition assay (accumulation of UDPMurNAc-pp 19); assay type: cell-based, Enterococcus faecalis; Enterococcus faecium; settings: 35 μg/mL, tetracycline pretreated VanA VRE, 30 minutes, 37° C.
Description: The inhibition of bacterial cell wall synthesis was established in an assay that quantitates the accumulation of the peptidoglycan precursor UDP-N-acetyl-muramyl-depsipentapeptide (Compound 19, UDPMurNAc-pp), resulting from inhibited cell wall incorporation following antibiotic treatment. […] This procedure was reduced in scale and modified to enlist reverse-phase HPLC separation, UV detection, and calibration curve determination of the amount of isolated 19, permitting use with limited sample sizes. A larger scale isolation and full characterization of 19 provided the material needed to establish a linear calibration curve.
The bacterial suspension was heated at 100° C. for 15 minutes to release cytosolic 19. The entire supernatant was analyzed by semi-preparative reverse-phase HPLC with a single injection and the amount of 19 was quantitated with use of the calibration curve.
Cultures of vancomycin-resistant Enterococcus faecalis (VanA VRE, BM4166) and Enterococcus faecium (VanA VRE, ATCC BAA-2317) were inoculated and grown in an orbital shaker at 37° C. in 100% brain-heart infusion broth for 12 hours. The above bacterial solution was subjected to a subculture to obtain fresh mid-log phase bacterial cells (total volume of bacterial suspension=5 mL, incubation time=6 hours, OD600=0.6). […] Vancomycin analogues were added and the mixture was incubated at 37° C. for a further 30 minutes.
After the bacteria were harvested (3000 rpm, 4° C., 20 minutes), this bacterial precipitate was washed and resuspended in 5 mM glucose and 5 mM HEPES buffer (500 μL, 1:1, pH=7.2). This bacterial suspension was heated at 100° C. for 15 minutes and centrifuged (13000 rpm, 25° C., 10 minutes). […] [*****Allen et al., Antimicrob. Agents Chemother. 1996, 40(10):2356-2362]; Liu et al., J. Am. Chem. Soc. 2001, 123:9916-9917.] The amount of UDP Mur N-Ac pentapeptide (19) was quantified by use of calibration curves for E. faecalis BM4166, and for E. faecium ATCC BAA-2317 based on the area under the curve (AUC).

[6] = system: vancomycin-sensitive Staphylococcus aureus (VSSA strain ATCC 25923); settings: previously reported data; cited from earlier work
[7] = system: VanA VRE (E. faecalis BM 4166 and E. faecium ATCC BAA-2317); experiment: Antimicrobial activity against VanA VRE (both strains); assay type: cell-based, Enterococcus faecalis; Enterococcus faecium
Description: (§1) One day before a study was run, fresh cultures of vancomycin-sensitive Staphylococcus aureus (VSSA strain ATCC 25923), methicillin and oxacillin-resistant Staphylococcus aureus subsp. aureus (MRSA strain ATCC 43300), vancomycin-resistant Enterococcus faecalis (VanA VRE, BM4166), Enterococcus faecium (VanA VRE, ATCC BAA-2317), vancomycin-resistant Enterococcus faecalis (VanB VRE, strain ATCC 51299), Escherichia coli (ATCC 25922), Acinetobacter baumannii (ATCC BAA-1710), Pseudomonas aeruginosa (ATCC 15442), Klebsiella pneumoniae (ATCC 700603) were inoculated and grown in an orbital shaker at 37° C. in 100% Mueller-Hinton broth (VSSA, MRSA and VanB VRE), 100% brain-heart infusion broth (VanA VRE, A. baumannii and K. pneumoniae) or 100% Luria broth (E. coli and P. aeruginosa). After 24 hours, the bacterial stock solutions were serially diluted with the culture medium (10% Mueller-Hinton broth for VSSA, MRSA and VanB VRE or 10% brain-heart infusion broth for VanA VRE A. baumannii and K. pneumoniae or 10% Luria Broth for E. coli and P. aeruginosa) to achieve a turbidity equivalent to a 1:100 dilution of a 0.5 M McFarland solution. This diluted bacterial stock solution was then inoculated in a 96-well V-shaped glass coated microtiter plate, supplemented with serial diluted aliquots of the antibiotic solution in DMSO (4 μL), to achieve a total assay volume of 0.1 mL. The plate was then incubated at 37° C. for 18 hours, after which minimal inhibitory concentrations (MICs) were determined by monitoring the cell growth (observed as a pellet) in the wells.
(§2) The lowest concentration of antibiotic (in μg/mL) capable of eliminating cell growth in the wells is the reported MIC value. The reported MIC values for the vancomycin analogues were determined against vancomycin as a standard in the first well.*

[8] = system: vancomycin-resistant Enterococcus faecalis (VanA VRE, BM4166); experiment: In vitro antimicrobial assay (MIC), VanA E. faecalis; assay type: cell-based
Description: as §1, §2
(§3) [*Clinical and Laboratory Standards Institute. Methods for Dilution Antimicrobial Susceptibility Tests for Bacteria That Grow Aerobically; Approved Standard, 7th ed.; CLSI document M07-A8; Clinical and Laboratory Standards Institute: Wayne, Pa., 2009.]

[9] = system: Enterococcus faecium (VanA VRE, ATCC BAA-2317); experiment: In vitro antimicrobial assay (MIC), VanA E. faecium; assay type: cell-based
Description: as §1, §2, §3

[10] = system: VanA VRE (E. faecalis BM 4166 and E. faecium ATCC BAA-2317); experiment: Cell wall permeability assay (propidium iodide uptake); assay type: cell-based, Enterococcus faecalis; Enterococcus faecium; settings: 10 μM compound
Description: The effect of the compounds on cell membrane permeability was examined by measuring cytoplasmic membrane uptake of the fluorescent probe propidium iodide in the same VanA vancomycin-resistant E. faecalis (BM 4166) and E. faecium (ATCC BAA-2317) strains. This fluorescent probe only enters cells with permeabilized cell membranes and is detected by the emission of fluorescence upon intracellular nucleic acid binding [Boulos et al., J Microbiol Methods 1999, 37(1):77-86].
Fresh, mid-log phase VanA VRE in pH 7.2 buffer at 25° C. were preincubated with propidium iodide (10 μM) for 5 minutes before the test compounds were added, monitoring the fluorescence emission at 617 nm (excitation at 535 nm) over time, both pre (5 minutes) and post (15 minutes) compound addition. Rapid and sustained increases in fluorescence intensity are observed immediately upon addition of test compounds that induce bacterial cell membrane permeability.
One day before a study was run, cultures of vancomycin-resistant Enterococcus faecalis (VanA VRE, BM4166) and Enterococcus faecium (VanA VRE, ATCC BAA-2317), were inoculated and grown in an orbital shaker at 37° C. in 100% brain-heart infusion broth for 12 hours. The above bacterial solution was subjected to a subculture to obtain fresh mid-log phase bacterial cells (total volume of bacterial suspension=7 mL, incubation time=6 hours, OD600=0.6). After the cultured bacteria were harvested (3000 rpm, 4° C., 20 minutes), the white bacterial precipitate was washed and resuspended in 5 mM glucose and 5 mM HEPES buffer (1:1, 500 μL, pH=7.2).
This bacterial suspension (130 μL) was charged into a 96-well black plate with a clear bottom (Corning 3650). The propidium iodide dye (10 μL, 150 μM DMSO solution) was added to the above suspension and the fluorescence was monitored at 25° C. for 5 minutes at 30 second intervals using a microplate reader (Molecular Devices®, Max Gemini EX) at an excitation wavelength of 535 nm and an emission wavelength of 617 nm. The test compound (150 μM, 10 μL) was added to the cell suspension and the fluorescence was monitored at 25° C. for an additional 15 minutes.

Row | SMILES | Antimicrobial Activity, MIC, VanA E. faecium [1] [µg/mL] | Antimicrobial Activity, MIC, MRSA S. aureus [2] [µg/mL] | Antimicrobial Activity, MIC, VanB E. faecalis [3] [µg/mL] | Antimicrobial Activity, MIC, VanA E. faecalis [4] [µg/mL] | inhibition of bacterial cell wall synthesis (accumulation of 19) [5] | Antimicrobial Activity, MIC, sensitive S. aureus [6] [µg/mL] | MIC ([7]; Enterococcus, read-out: MIC against VanA VRE) [µg/mL] | MIC ([8]; Enterococcus faecalis, VRE, read-out: Antimicrobial Activity, MIC, VanA E. faecalis) [µg/mL] | MIC ([9]; Enterococcus faecium, read-out: Antimicrobial Activity, MIC, VanA E. faecium) [µg/mL] | MIC against VanA VRE ([7]; both VanA VRE strains) [µg/mL] | fold more potent than pocket analog 4 against VanA VRE ([7]; relative to Compound 4) [fold] | fold more potent than C14-vancomycin (12) against VanA VRE ([7]; relative to Compound 12) [fold] | fold more potent than vancomycin against VanA VRE ([7]; relative to vancomycin (1)) [fold] | induced cell membrane permeability (propidium uptake) [10] | Antimicrobial Activity, MIC, VanA E. faecalis ([8]; BM 4166) [µg/mL] | Antimicrobial Activity, MIC, VanA E. faecium ([9]; ATCC BAA-2317) [µg/mL]
1 | CN[C@H](CC(C)C)C(=O)N[C@H]1C(=O)N[C@@H](CC(N)=O)C(=O)N[C@H]2C(=S)N[C@@H]3C(=O)N[C@H](C(=O)N[C@H](C(=O)O)c4cc(O)cc(O)c4-c4cc3ccc4O)[C@H](O)c3ccc(c(Cl)c3)Oc3cc2cc(c3OC2OC(CO)C(O)[C@H](O)[C@@H]2O[C@H]2CC(C)(N)[C@H](O)[C@H](C)O2)Oc2ccc(cc2Cl)[C@H]1O (stereo partly shown) [Compound 2] | >32 | >32 | >32 | >32 | do not effectively inhibit bacterial cell wall synthesis | >32 | – | – | – | – | – | – | – | – | – | –
2 | CNC(CC(C)C)C(=O)NC1C(=O)NC(CC(N)=O)C(=O)NC2CNC3C(=O)NC(C(=O)NC(C(=O)O)c4cc(O)cc(O)c4-c4cc3ccc4O)C(O)c3ccc(c(Cl)c3)Oc3cc2cc(c3OC2OC(CO)C(O)C(O)C2OC2CC(C)(N)C(O)C(C)O2)Oc2ccc(cc2Cl)[C@@H]1O (stereo partly shown) [Compound 4, [Ψ[CH2NH] Tpg^4]vancomycin] | 31 | – | – | 31 | inhibits bacterial cell wall biosynthesis; also recorded: equally active | – | 31 (≈ 21.6 µM) | 31 (≈ 21.6 µM) | 31 (≈ 21.6 µM) | – | – | – | – | – | – | –
3 | CN[C@H](CC(C)C)C(=O)N[C@H]1C(=O)N[C@@H](CC(N)=O)C(=O)N[C@H]2C(=N)N[C@@H]3C(=O)N[C@H](C(=O)N[C@H](C(=O)O)c4cc(O)cc(O)c4-c4cc3ccc4O)[C@H](O)c3ccc(c(Cl)c3)Oc3cc2cc(c3OC2OC(CO)C(O)[C@H](O)[C@@H]2O[C@H]2CC(C)(NCc3ccc(-c4ccc(Cl)cc4)cc3)[C@H](O)[C@H](C)O2)Oc2ccc(cc2Cl)[C@H]1O (stereo partly shown) [Compound 7] | 0.005 | 0.06 | 0.06 | 0.005 | – | 0.03 | – | – | – | – | – | – | – | – | – | –
4 | CCCCCCCCCCCCCC[N+](C)(C)CCCNC(=O)[C@H]1NC(=O)[C@H]2NC(=O)[C@@H](NC[C@@H]3NC(=O)[C@H](CC(N)=O)NC(=O)[C@H](NC(=O)[C@@H](CC(C)C)NC)[C@H](O)c4ccc(c(Cl)c4)Oc4cc3cc(c4OC3OC(CO)C(O)[C@H](O)[C@@H]3O[C@H]3CC(C)(N)[C@H](O)[C@H](C)O3)Oc3ccc(cc3Cl)[C@H]2O)c2ccc(O)c(c2)-c2c(O)cc(O)cc21 (stereo partly shown) [Compound 13] | – | – | – | – | equally active | – | – | – | – | 0.16 | 200 | > 10 | > 1000 | produced pronounced cell membrane permeability immediately upon addition | 0.16 | 0.16
